Experimental data as given in patent US20200003756A1, “METHOD FOR OBSERVING SEBACEOUS GLAND” (MANDOM CORPORATION, priority 2017, published 2020).

Tested on: sebaceous-gland-structure A
Test: Observation of inside of sebaceous-gland-structure, lipid droplets of sebum in outermost layer / degree of progress of sebum production (Example 2)
Type: cell-based
Settings: test sample B, linoleic acid 1×10^−4 M, 24 hours (Experiment number 8); FIGS. 8 and 10
Method: Linoleic acid and linoleic acid receptor antagonist (manufactured by Abeam plc, trade name: GSK-3787) as test substances were added to the mixed medium obtained in Preparation Example 1 so that the concentration of linoleic acid was 1×10^−4 M and so that the concentration of the test substance was 1 μM, to obtain a test sample D.
One milliliter of the test sample A was added to each well of a 24-well plate. Next, the sebaceous-gland-structure A obtained in Preparation Example 6 was cultured in a suspended state in the test sample A in each well of the 24-well plate in the presence of 5% by volume carbon dioxide at 37° C. for 24 hours, to contact the sebaceous-gland-structure A with the test sample A (Experiment number 7). […]
Furthermore, the state of each cell of 40 cells in the outermost layer shown in each figure was evaluated by using the results shown in FIGS. 7 to 9 on the basis of the evaluation criterion described below. […]
Next, the degree of progress of sebum production in the sebaceous gland cell contained in the sebaceous-gland-structure A was evaluated by calculating the mean value of the points in the 40 cells in the outermost layer in FIGS. 7 to 9. […]

## CCCCC/C=C\C/C=C\CCCCCCCC(=O)O [linoleic acid, Linoleic acid]
  lipid droplets of sebum in the outermost layer of the sebaceous-gland-structure A: lipid droplets of sebum were found
